The target of one data set is T1, human CMKLR1 (Homo sapiens, UniProt Q99788).
T1 construct: host or cells: HEK293A (Invitrogen), stably expressing human Gα15
T1 sequence (Q99788 1-373): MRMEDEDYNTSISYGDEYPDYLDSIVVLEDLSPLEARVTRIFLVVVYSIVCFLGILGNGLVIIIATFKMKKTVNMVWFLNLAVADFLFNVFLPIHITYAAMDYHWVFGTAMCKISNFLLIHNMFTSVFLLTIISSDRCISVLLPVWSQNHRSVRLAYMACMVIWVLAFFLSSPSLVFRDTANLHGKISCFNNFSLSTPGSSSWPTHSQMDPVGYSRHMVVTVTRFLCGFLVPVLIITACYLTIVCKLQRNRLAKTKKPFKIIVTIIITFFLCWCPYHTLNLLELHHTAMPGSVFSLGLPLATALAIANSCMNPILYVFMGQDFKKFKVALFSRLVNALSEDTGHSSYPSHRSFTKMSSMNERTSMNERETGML
Put plainly: Ca2+ mobilization (CellLux imaging) agonist assay in HEK293A cells expressing CMKLR1 and Gα15. The format is cell-based. The method, boiled down:
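HEK293A cells co-expressing CMKLR1 and Gα15 were loaded with FLUO4-AM, and peptides were added robotically in C1 buffer (HEPES pH 7.4, 2 mM CaCl2) with 0.1% BSA. Fluorescence changes were read in duplicate wells, buffer-subtracted and normalized to background. EC50 came from amplitude–concentration plots.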
A general note: A change in cytosolic calcium serves as a functional read-out for many receptors and channels.

A short description of data set [1]: In vitro peptide stability in human serum (RP-HPLC). The following applies: for half-life at 50 µg/mL: human.
Procedure: The initial time is recorded, and at known time intervals 50 µL of the reaction solution is removed and added to 100 µL of 6% aqueous trichloroacetic acid (TCA) for precipitation of serum proteins. […] The reaction supernatant is then analyzed using RP-HPLC (Agilent 1200 LC System) on a ZORBAX Eclipse XDB-C18, 4.6×150 mm, 5 µm column (Agilent). […] Fluorescence is detected at an excitation wavelength of 280 nm and emission wavelength of 340 nm. Kinetic analysis was carried out by least-squares analysis of the logarithm of the integration peak area versus time.
Where [2] appears, read: Ca2+ mobilization, CMKLR1, decimal comma.
Where [3] appears, read: Ca2+ mobilization, CMKLR1, decimal comma, NR where no EC50 is given, read-out: EC50.

These results are taken from publication PMC3351444, “Molecular Evolution of a Peptide GPCR Ligand Driven by Artificial Neural Networks” (PLoS ONE, 2012).

Like-named read-outs stand apart in the source and are kept apart here. Square brackets hold non-standard residues; d marks the D form. Ends that are not written are not given here. Peptide text beside a SMILES is read from it.

For orientation: EC50 means the concentration at which the effect is half-maximal. As a reminder, the half-life is the time needed for the level to fall by half in the phase considered. Read a high half-life as slow decline.

`CC(C)C[C@H](NC(=O)[C@H](Cc1ccccc1)NC(=O)[C@H](CCC(N)=O)NC(=O)CNC(=O)[C@H]1CCCN1C(=O)[C@@H](CC(C)C)NC(=O)[C@@H](N)Cc1ccc(O)cc1)C(=O)N[C@@H](Cc1ccccc1)C(=O)N[C@@H](CO)C(=O)O` [compound 75] (H-Y[dL][dP]GQFLFS-OH; N-terminus assumed): the max response on human CMKLR1 (setting [2]) was 0,99 DF/F0. Moreover, the EC50 on human CMKLR1 (setting [3]) turned out to be 5580 nM. Further, the half-life at 50 µg/mL in data set [1] (human serum, 25% (v/v) in RPMI) amounted to 0.817 h.

For `CC(C)C[C@H](NC(=O)CN)C(=O)N[C@@H](CCC(N)=O)C(=O)N[C@H](CCC(N)=O)C(=O)N[C@@H](Cc1ccccc1)C(=O)N[C@@H](Cc1ccc(O)cc1)C(=O)N[C@H](Cc1c[nH]c2ccccc12)C(=O)NCC(=O)N[C@H](Cc1ccccc1)C(=O)O` [compound 132] (H-GLQ[dQ]FY[dW]G[dF]-OH; N-terminus assumed), the max response on human CMKLR1 (setting [2]) is reported as 1,82 DF/F0. Besides, the EC50 at human CMKLR1 (setting [3]) amounted to 55.7 nM. In data set [1] (human serum, 25% (v/v) in RPMI), this molecule registered a half-life at 50 µg/mL of 1.95 h.

For YFPGQFAFG-OH [compound 29], the max response at human CMKLR1 is 1,01 DF/F0. Besides, the t1/2 in data set [1] (metabolic stability in human serum) turned out to be 0.217 h.

As for `CC(C)C[C@H](NC(=O)[C@@H](N)CC(C)C)C(=O)N[C@@H](Cc1ccc(O)cc1)C(=O)N[C@H](Cc1c[nH]c2ccccc12)C(=O)N1CCC[C@H]1C(=O)N[C@@H](Cc1ccc(O)cc1)C(=O)N[C@@H](C)C(=O)N[C@@H](CCCCN)C(=O)N[C@H](CO)C(=O)O` [compound 144] (H-LLY[dW]PYAK[dS]-OH; N-terminus assumed), the max response at human CMKLR1 (setting [2]) was 1,56 DF/F0. Further, the EC50 on human CMKLR1 (setting [3]) worked out at 145 nM. The same molecule showed a half-life at 50 µg/mL in data set [1] (human serum, 25% (v/v) in RPMI) of 1.35 h.

Regarding `CC(C)C[C@H](NC(=O)[C@@H](N)Cc1ccc(O)cc1)C(=O)N1CCC[C@H]1C(=O)NCC(=O)N[C@@H](CCC(N)=O)C(=O)N[C@@H](Cc1ccc(O)cc1)C(=O)N[C@@H](C)C(=O)N[C@H](C)C(=O)N[C@H](Cc1ccccc1)C(=O)O` [compound 141] (H-YLPGQYA[dA][dF]-OH; N-terminus assumed), on human CMKLR1 (setting [2]), the max response was 1,73 DF/F0. Besides, the EC50 at human CMKLR1 (setting [3]) came out at 108 nM. Moreover, the half-life at 50 µg/mL in data set [1] (human serum, 25% (v/v) in RPMI) is 0.567 h.

Turning to `CC(C)C[C@H](NC(=O)[C@H](N)Cc1ccccc1)C(=O)N1CCC[C@H]1C(=O)NCC(=O)N[C@@H](CCC(N)=O)C(=O)N[C@@H](Cc1ccc(O)cc1)C(=O)N[C@@H](C)C(=O)N[C@@H](Cc1ccccc1)C(=O)N[C@H](Cc1ccccc1)C(=O)O` [fLPGQYAFf] (H-[dF]LPGQYAF[dF]-OH; N-terminus assumed), the EC50 on human CMKLR1 (intracellular calcium mobilization, HEK293 cells expressing CMKLR1, mean of three independent experiments ± SD, read-out: activity: EC50 ±SD) was 8.2 ± 3.96 nM. The molecule further yielded a half-life at 50 µg/mL in data set [1] (human serum, 25% (v/v) in RPMI) of 19.3 ± 0.683 h.

At human CMKLR1, `CC(C)C[C@H](NC(=O)[C@@H](N)Cc1ccc(O)cc1)C(=O)N1CCC[C@H]1C(=O)N[C@H](CO)C(=O)N[C@@H](CCC(N)=O)C(=O)N[C@@H](Cc1ccc(O)cc1)C(=O)N[C@@H](C)C(=O)N[C@@H](Cc1ccccc1)C(=O)N[C@H](Cc1ccccc1)C(=O)O` [compound 119] (H-YLP[dS]QYAF[dF]-OH; N-terminus assumed) gave a 50% effective concentration (EC50) of 0.31 nM. Moreover, the max response on human CMKLR1 (setting [2]) is recorded as 1,62 DF/F0. Further, in data set [1] (serum), the half-life at 50 µg/mL stood at 1.05 h.

For `CC(C)C[C@@H](NC(=O)[C@H](Cc1c[nH]cn1)NC(=O)[C@H](N)CO)C(=O)NCC(=O)N[C@@H](CCC(N)=O)C(=O)N[C@@H](Cc1ccc(O)cc1)C(=O)N[C@@H](C)C(=O)N[C@@H](Cc1ccccc1)C(=O)N[C@H](Cc1ccccc1)C(=O)O` [compound 140] (H-[dS]H[dL]GQYAF[dF]-OH; N-terminus assumed), the max response at human CMKLR1 (setting [2]) is 1,49 DF/F0. Moreover, at human CMKLR1 (setting [3]), the EC50 came to 105 nM. The half-life at 50 µg/mL in data set [1] (human serum, 25% (v/v) in RPMI) came to 10.2 h.

On to `CC(C)C[C@H](NC(=O)[C@@H](N)Cc1ccc(O)cc1)C(=O)N1CCC[C@H]1C(=O)N1CCC[C@@H]1C(=O)N1CCC[C@H]1C(=O)N[C@@H](Cc1ccc(O)cc1)C(=O)N[C@@H](C)C(=O)N[C@@H](Cc1ccccc1)C(=O)N[C@H](Cc1ccccc1)C(=O)O` [compound 130] (H-YLP[dP]PYAF[dF]-OH; N-terminus assumed), for which the max response on human CMKLR1 (setting [2]) is recorded as 1,72 DF/F0. Also, on human CMKLR1 (setting [3]), the EC50 came out at 43.5 nM. Besides, in data set [1] (human serum, 25% (v/v) in RPMI), the half-life at 50 µg/mL amounted to 3.58 h.
